The target of data set [1] is T1, Mushroom tyrosinase (Agaricus bisporus, UniProt O42713+Q00024+C7FF04+C7FF05). The data set is described as follows: Inhibition of mushroom tyrosinase using L-DOPA as substrate preincubated for 10 mins followed by substrate addition measured after 20 mins.
In data set [2] the target is T1, Mushroom tyrosinase. Put plainly: Non-competitive inhibition of mushroom tyrosinase at 1.06 to 17 uM preincubated for 10 mins followed by addition of varying concentration of substrate L-DOPA measured after 20 mins by Lineweaver-Burk plot analysis.
The target in data set [3] is Mushroom tyrosinase (Agaricus bisporus) (UniProt O42713+Q00024+C7FF04+C7FF05). The data set is described as follows: Non-competitive inhibition of mushroom tyrosinase at 1.06 to 34 uM preincubated for 10 mins followed by addition of varying concentration of substrate L-DOPA measured after 20 mins by Dixon plot analysis.
Data set [4] relates to COC(=O)/C=C1\S/C(=N/N=C/c2ccncc2)NC1=O. Put plainly: Non-competitive inhibition of mushroom tyrosinase assessed as Vmax of substrate at 17 uM preincubated for 10 mins followed by addition of varying concentration of substrate L-DOPA measured every 30 secs up to 5 mins by Lineweaver-Burk plot analysis (reference value: […] deltaA/s). Conditions: Agaricus bisporus.
Data set [5] shares this test system. The data set is described as follows: Non-competitive inhibition of mushroom tyrosinase assessed as Vmax of substrate at 8.50 uM preincubated for 10 mins followed by addition of varying concentration of substrate L-DOPA measured every 30 secs up to 5 mins by Lineweaver-Burk plot analysis (reference value: […] deltaA/s). The settings on record: Agaricus bisporus.

For data set [6] the test system is unchanged. The data set is described as follows: Non-competitive inhibition of mushroom tyrosinase assessed as Vmax of substrate at 1.06 uM preincubated for 10 mins followed by addition of varying concentration of substrate L-DOPA measured every 30 secs up to 5 mins by Lineweaver-Burk plot analysis (reference value: […] deltaA/s). Conditions: Agaricus bisporus.

The test system is the same in data set [7]. Put plainly: Non-competitive inhibition of mushroom tyrosinase assessed as substrate Km at 1.06 to 17 uM preincubated for 10 mins followed by addition of varying concentration of substrate L-DOPA measured after 20 mins by Lineweaver-Burk plot analysis (reference value: […] mM). Conditions: Agaricus bisporus.

Active and inactive are the calls of the source. No cut-off for these calls is given here.

Sequence of Mushroom tyrosinase (Agaricus bisporus) (from UniProt O42713+Q00024+C7FF04+C7FF05) (C7FF05 whole entry, looked up): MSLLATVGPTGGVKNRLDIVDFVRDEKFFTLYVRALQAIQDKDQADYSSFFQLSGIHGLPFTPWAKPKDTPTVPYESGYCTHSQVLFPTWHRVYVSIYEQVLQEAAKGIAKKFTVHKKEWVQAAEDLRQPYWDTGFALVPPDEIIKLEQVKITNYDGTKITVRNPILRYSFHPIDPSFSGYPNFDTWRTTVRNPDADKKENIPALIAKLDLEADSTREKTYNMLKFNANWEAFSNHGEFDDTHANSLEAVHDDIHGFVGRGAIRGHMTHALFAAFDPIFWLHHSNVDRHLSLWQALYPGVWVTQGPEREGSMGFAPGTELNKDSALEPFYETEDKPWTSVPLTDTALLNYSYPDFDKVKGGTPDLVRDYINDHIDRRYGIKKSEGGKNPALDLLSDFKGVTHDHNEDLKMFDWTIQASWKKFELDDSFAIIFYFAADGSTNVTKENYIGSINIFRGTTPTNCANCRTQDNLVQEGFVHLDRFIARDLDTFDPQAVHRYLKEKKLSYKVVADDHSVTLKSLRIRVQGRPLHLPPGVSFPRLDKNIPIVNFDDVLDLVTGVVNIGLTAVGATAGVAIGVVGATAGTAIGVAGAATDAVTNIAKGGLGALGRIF
Sequence of Mushroom tyrosinase (Agaricus bisporus) (from UniProt O42713+Q00024+C7FF04+C7FF05) (C7FF04 whole entry, looked up): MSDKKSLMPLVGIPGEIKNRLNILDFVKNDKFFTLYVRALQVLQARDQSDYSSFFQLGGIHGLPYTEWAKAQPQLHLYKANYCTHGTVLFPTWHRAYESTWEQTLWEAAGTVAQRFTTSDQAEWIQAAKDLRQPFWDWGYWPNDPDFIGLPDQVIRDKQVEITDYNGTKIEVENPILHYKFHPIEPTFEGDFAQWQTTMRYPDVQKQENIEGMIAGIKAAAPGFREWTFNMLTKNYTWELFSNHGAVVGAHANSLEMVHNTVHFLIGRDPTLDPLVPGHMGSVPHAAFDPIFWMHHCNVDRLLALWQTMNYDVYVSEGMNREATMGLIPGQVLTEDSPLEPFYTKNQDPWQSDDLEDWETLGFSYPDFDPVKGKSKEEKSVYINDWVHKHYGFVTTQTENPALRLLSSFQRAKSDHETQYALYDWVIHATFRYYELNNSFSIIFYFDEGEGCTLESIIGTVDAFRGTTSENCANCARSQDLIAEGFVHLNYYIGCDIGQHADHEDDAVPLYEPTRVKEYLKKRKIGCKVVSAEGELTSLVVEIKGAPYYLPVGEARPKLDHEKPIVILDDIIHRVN
Sequence of Mushroom tyrosinase (Agaricus bisporus) (from UniProt O42713+Q00024+C7FF04+C7FF05) (Q00024 whole entry, looked up): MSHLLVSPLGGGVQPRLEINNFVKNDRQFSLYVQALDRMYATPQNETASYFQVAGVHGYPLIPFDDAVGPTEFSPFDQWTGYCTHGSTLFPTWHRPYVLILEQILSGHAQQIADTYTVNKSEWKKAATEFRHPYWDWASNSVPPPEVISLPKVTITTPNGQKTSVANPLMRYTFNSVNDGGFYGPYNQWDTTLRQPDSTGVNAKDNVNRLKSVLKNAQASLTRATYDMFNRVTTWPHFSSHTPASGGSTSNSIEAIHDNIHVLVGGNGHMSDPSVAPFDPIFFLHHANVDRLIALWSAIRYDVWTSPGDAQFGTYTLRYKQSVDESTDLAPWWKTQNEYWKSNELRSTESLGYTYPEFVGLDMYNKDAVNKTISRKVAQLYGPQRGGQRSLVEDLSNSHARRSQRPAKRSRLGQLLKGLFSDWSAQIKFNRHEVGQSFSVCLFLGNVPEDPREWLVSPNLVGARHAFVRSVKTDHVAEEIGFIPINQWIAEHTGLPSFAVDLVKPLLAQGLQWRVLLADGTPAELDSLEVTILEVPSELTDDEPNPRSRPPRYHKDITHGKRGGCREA
Sequence of Mushroom tyrosinase (Agaricus bisporus) (from UniProt O42713+Q00024+C7FF04+C7FF05) (O42713 whole entry, looked up): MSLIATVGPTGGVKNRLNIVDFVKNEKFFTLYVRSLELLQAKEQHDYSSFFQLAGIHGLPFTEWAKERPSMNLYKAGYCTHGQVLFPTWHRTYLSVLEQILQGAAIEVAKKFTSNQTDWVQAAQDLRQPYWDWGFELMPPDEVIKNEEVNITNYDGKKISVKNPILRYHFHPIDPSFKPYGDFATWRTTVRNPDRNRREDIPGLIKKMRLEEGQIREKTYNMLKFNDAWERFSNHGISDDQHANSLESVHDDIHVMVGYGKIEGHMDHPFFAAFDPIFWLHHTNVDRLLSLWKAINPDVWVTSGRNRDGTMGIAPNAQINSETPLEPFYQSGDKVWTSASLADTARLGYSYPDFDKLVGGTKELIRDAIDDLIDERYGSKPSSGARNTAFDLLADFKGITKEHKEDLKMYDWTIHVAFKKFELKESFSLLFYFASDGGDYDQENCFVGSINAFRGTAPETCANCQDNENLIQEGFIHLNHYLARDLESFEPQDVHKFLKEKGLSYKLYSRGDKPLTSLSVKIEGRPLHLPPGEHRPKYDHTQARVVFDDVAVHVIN

For the compound `COC(=O)/C=C1\S/C(=N/N=C/c2ccc(N(C)C)cc2)NC1=O`, on Mushroom tyrosinase [1], the IC50 amounted to 100.45 µM.
Same read-out and setting: as for `COC(=O)/C=C1\SC(N/N=C/c2ccco2)=NC1=O`, the figure is 75.26 µM.
Compound `COC(=O)/C=C1\S/C(=N/N=C/c2ccncc2)NC1=O` yielded an IC50 against Mushroom tyrosinase [1] of 3.17 µM. On Mushroom tyrosinase [2], this compound came in with a Ki of 1.5 µM. The inhibition result in data set [3] was “Active”.
Compound `COC(=O)/C=C1\S/C(=N/N=C/c2ccc(OCc3ccc(OC)cc3)cc2)NC1=O` came in with a half-maximal inhibitory concentration (IC50) against Mushroom tyrosinase [1] of 297.6 µM.
As for “Mushroom tyrosinase (Agaricus bisporus) (from UniProt O42713+Q00024+C7FF04+C7FF05)”, the Vmax (10'-3deltaA/s) in data set [4] amounted to 3.33; in data set [5], 1. For the same compound, in data set [6], the Vmax (10'-4deltaA/s) is 5.55. Moreover, in data set [7], the Km came out at 1000 µM.
On to `COC(=O)/C=C1\S/C(=N/N=C/c2ccc(OCc3ccccc3)cc2)NC1=O`, for which, on Mushroom tyrosinase [1], the IC50 turned out to be 141.77 µM.
Same read-out and setting: the value for `COC(=O)/C=C1\S/C(=N/N=C/C=C/c2ccccc2)NC1=O` was 208.25 µM.
On the same count and under the same terms, as for `COC(=O)/C=C1\S/C(=N/N=C/c2ccc[nH]2)NC1=O`, the figure is 50.12 µM.
On the same count and under the same terms, as for `COC(=O)/C=C1\S/C(=N/N=C/c2ccc(C)o2)NC1=O`, the figure is 49.82 µM; as for `COC(=O)/C=C1\S/C(=N/N=C/c2ccc(Br)s2)NC1=O`, 348.93 µM.

The record behind these values is ChEMBL document CHEMBL4043271, “Synthesis, computational studies and enzyme inhibitory kinetics of substituted methyl[2-(4-dimethylamino-benzylidene)-hydrazono)-4-oxo-thiazolidin-5-ylidene]acetates as mushroom tyrosinase inhibitors” (Bioorg Med Chem, 2017).
